Patent US5262521A (SRI International, priority 1991, dated 1993)
Where a SMILES comes first, the peptide text is derived from it. [ ]: non-standard residue; d: D form. The star is where a group is joined. Sta = CC(C)C[C@H](N)[C@@H](O)CC(=O)O; Isovaleryl = CC(C)CC(=O)*

System: atrial peptide-degrading enzyme (ADE)
Experiment: Inhibition of ADE activity (AcAPI production from 50 μM AcAPII, HPLC)
Type: biochemical, bovine
Details: for Percent Inhibition of ADE: 50 μM AcAPII, 1 hour, 37° C.
Procedure: The concentration of enzyme and AcAPII were chosen so that approximately 80% of the AcAPII was degraded in the absence of inhibitor. The production of AcAPI was determined by integration of the AcI peak, and percent inhibition by the inhibitors was calculated.
(e.) Enzyme Inhibitor Testing: To further characterize ADE, the extent of inhibition by several known peptidase inhibitors was determined.

Question: With `CC(C)C[C@H](NC(=O)[C@@H](N)CO)C(=O)N[C@@H](CCCNC(=N)N)C(=O)N[C@@H](CCCNC(=N)N)C(=O)N[C@@H](CO)C(=O)N[C@@H](CO)C(=O)N[C@H](C)C(=O)NCC(=O)N[C@H](C)C(=O)N[C@@H](CC(N)=O)C(=O)N[C@H](CO)C(=O)N[C@@H](Cc1ccccc1)C(=O)N[C@@H](CCCNC(=N)N)C(=O)N[C@@H](Cc1ccc(O)cc1)C(N)=O` [(III), Ser-Leu-Arg-Arg-Ser-Ser-DAla-Gly-DAla-Asn-DSer-Phe-Arg-Tyr-NH2] (H-SLRRSS[dA]G[dA]N[dS]FRY-NH2) as the compound, how does the “% Inhibition At 0.1 mM” value (Table 10, 0.1 mM) read?
Answer: Its value is 22%.

Question: With `O=C(O)CN(CCN(CC(=O)O)CC(=O)O)CC(=O)O` [EDTA, Ethylenediamine tetraacetic acid] as the compound, how does the “ADE activity after dialysis of the enzyme” value (enzyme dialyzed against 1 mM EDTA) read?
Answer: Its value is “totally abolished”.

Question: What about the “Percent Inhibition of ADE” value (inhibitor 5 mM) of the same compound?
Answer: The value was 20%.

Question: Which “Percent Inhibition of ADE” value (inhibitor 1 mM) does the source give for `O=S(=O)(F)Cc1ccccc1` [PMSF, Phenylmethylsulfonyl fluoride] here?
Answer: The value was 8%.

Question: `c1cnc2c(c1)ccc1cccnc12` [1,10-Phenanthroline] was tested. Which “Inhibition of ADE, in words” value did it give?
Answer: Its value is “inhibited activity to a slightly lesser extent”.

Question: What about the “Percent Inhibition of ADE” value (inhibitor 1 mM) of the same compound?
Answer: The value was 72%.

Question: How did the “Percent Inhibition of ADE” value (inhibitor 0.1 mM) turn out when `CC(C)C[C@H](NC(=O)N[C@H](C(=O)N[C@@H](CCC(N)=O)C(=O)N[C@@H](C)C=O)[C@@H]1CCNC(=N)N1)C(=O)O` [Elastinal] was run?
Answer: Its value is 10%.

Question: Which “Percent Inhibition of ADE” value (inhibitor 0.01 mM) does the source give for `CC(C)CC(=O)N[C@H](C(=O)N[C@H](C(=O)N[C@@H](CC(C)C)[C@@H](O)CC(=O)N[C@@H](C)C(=O)N[C@@H](CC(C)C)[C@@H](O)CC(=O)O)C(C)C)C(C)C` [Pepstatin] (Isovaleryl-VV[Sta]A[Sta]-OH) here?
Answer: Its value is 0%.

Question: How did the “Inhibition of ADE, in words” value turn out when `CC(=O)N[C@@H](CC(C)C)C(=O)N[C@@H](CC(C)C)C(=O)N[C@H](C=O)CCCNC(=N)N` [Leupeptine] was run?
Answer: The value was “slight inhibition”.

Question: And the “Percent Inhibition of ADE” value (inhibitor 0.1 mM)?
Answer: Its value is 33%.
